Active and inactive are the calls of the source. No stated cut-off is given here; in the data, active means IC50 below about 9 µM; inactive means the rest.
Biological target: Tyrosine-protein kinase JAK2 (Homo sapiens) (UniProt O60674)
Assay: JAK2V617F kinase, IRF1 reporter and Ba/F3 cytotoxicity panel, late-stage follow-up, HEL and Ba/F3 cells (AID 2165)

Sequence of Tyrosine-protein kinase JAK2 (Homo sapiens) (O60674 whole entry, looked up, change not shown): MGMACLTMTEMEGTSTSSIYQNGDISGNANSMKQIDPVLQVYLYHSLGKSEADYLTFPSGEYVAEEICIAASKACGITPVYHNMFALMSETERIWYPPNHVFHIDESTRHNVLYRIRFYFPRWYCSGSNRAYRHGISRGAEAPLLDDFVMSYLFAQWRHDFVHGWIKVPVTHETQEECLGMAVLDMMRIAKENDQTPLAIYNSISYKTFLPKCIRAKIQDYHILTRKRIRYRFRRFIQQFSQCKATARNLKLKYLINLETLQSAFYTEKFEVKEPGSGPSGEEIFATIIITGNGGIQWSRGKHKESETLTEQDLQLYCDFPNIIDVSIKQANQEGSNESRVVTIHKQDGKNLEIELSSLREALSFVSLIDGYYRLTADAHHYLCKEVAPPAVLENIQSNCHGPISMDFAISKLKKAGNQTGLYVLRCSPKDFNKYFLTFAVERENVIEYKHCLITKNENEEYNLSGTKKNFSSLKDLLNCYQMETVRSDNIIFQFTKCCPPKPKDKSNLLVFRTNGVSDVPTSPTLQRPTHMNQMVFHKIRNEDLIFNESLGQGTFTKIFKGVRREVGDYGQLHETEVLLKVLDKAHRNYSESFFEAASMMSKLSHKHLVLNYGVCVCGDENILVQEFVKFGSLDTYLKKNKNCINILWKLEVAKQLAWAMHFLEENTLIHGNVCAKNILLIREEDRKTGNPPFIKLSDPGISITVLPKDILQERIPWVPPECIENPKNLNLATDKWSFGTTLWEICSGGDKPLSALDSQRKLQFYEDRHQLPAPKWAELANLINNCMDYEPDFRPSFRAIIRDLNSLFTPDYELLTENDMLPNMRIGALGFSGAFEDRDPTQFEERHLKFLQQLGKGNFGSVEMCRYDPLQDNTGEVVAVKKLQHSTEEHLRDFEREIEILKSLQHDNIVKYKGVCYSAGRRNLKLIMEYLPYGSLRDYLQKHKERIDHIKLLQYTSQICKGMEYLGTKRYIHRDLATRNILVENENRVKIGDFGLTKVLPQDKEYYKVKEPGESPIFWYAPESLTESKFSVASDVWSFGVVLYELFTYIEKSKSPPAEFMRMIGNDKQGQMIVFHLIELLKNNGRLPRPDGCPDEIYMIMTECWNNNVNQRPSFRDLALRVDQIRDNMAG

Row | SMILES | IC50 (JAK2V617F) | IC50 (Ba/F3, irf1 reporter) | IC50 (HEL, irf1 reporter)
1 | CCS(=O)(=O)c1ccc(O)c(NC(=O)COc2cccc(C)c2)c1 | > 40 µM (inactive) | – | –
2 | Nc1nc(N)c2nc(-c3ccccc3)c(N)nc2n1 | – | > 40 µM (inactive) | > 40 µM (inactive)
3 | O=C(CCl)N(C/C=C/c1ccccc1)c1ccc2c(c1)OCCO2 | – | 0.499 µM | 12 µM
4 | Oc1ccc(Cl)cc1N=Cc1sc2ccccc2c1Cl | – | 3.42 µM | 5.53 µM
5 | COC(=O)COc1cccc2c(=O)n(CC(=O)NCc3ccc(F)cc3)ccc12 | – | 16.3 µM | 7.33 µM
6 | COc1cc2ncnc(Sc3ccc(Cl)cc3)c2cc1OC | > 40 µM (inactive) | – | > 40 µM (inactive)
7 | Cc1cc2ncc(-c3ccc(O)c(O)c3)nc2cc1C | 0.84 µM | 0.104 µM | 3.19 µM
8 | CCC(C)c1ccc(OCC(=O)Nc2cc(C)ccc2O)cc1 (stereo unspecified) | 33.2 µM | – | –
9 | C#CCSc1nsc(SCC#C)c1C#N | – | 6.71 µM | > 40 µM (inactive)
10 | Cc1cccc(OCC(=O)Nc2ccc(O)cc2)c1 | > 40 µM (inactive) | – | –
11 | C/C(=C\c1ccccc1F)C(=O)c1c(C)cc(C)[nH]c1=O | > 40 µM (inactive) | > 40 µM (inactive) | 3.24 µM
12 | COc1ccc(C2=Nn3c(nnc3C3CCCCC3)SC2)cc1OC | – | 8.93 µM | 13.3 µM
13 | O=c1oc2ccc(Cl)cc2nc1/C=C(\O)c1ccco1 | – | 5.55 µM | 4.75 µM
14 | COc1ccccc1C(C[N+](=O)[O-])c1c(N)n(C)c(=O)n(C)c1=O (stereo unspecified) | – | 6.82 µM | 17 µM
15 | O=C(Nc1cccc(NC(=O)c2cccs2)c1)c1ccc([N+](=O)[O-])o1 | – | 4.5 µM | 3.31 µM
16 | Nc1nc(CCl)nc(N(c2ccccc2)c2ccccc2)n1 | – | 14.3 µM | 2.64 µM
17 | Cc1cccc(Nc2nc(N)nc(CCl)n2)c1C | – | 14.9 µM | 1.17 µM
18 | CCOc1ccc(C(=O)C(CN2CCOCC2)c2ccccc2)cc1 (stereo unspecified) | – | 16.6 µM | 11 µM
19 | COc1ccc(-n2nnnc2SCC(=O)c2ccc(O)c(O)c2)cc1 | – | 6.22 µM | 25.5 µM
20 | Cc1cc(C)cc(NC(=O)COc2cccc(C)c2)c1 | > 40 µM (inactive) | – | –
21 | Cc1ccc(O)c(NC(=O)COc2ccc(Cl)cc2)c1 | 1.51 µM | – | –
22 | Cc1ccccc1CS(=O)(=O)c1nnc([C@H](CC(C)C)NC(=O)OC(C)(C)C)o1 | – | 1.96 µM | 12.1 µM

Row | SMILES | IC50 (JAK2V617F) | IC50 (Ba/F3, irf1 reporter) | IC50 (HEL, irf1 reporter)
23 | O=C1C=C(Nc2ccc(O)cc2)C(=O)c2ccccc21 | – | 7.94 µM | 34.7 µM
24 | Cc1ccc(O)c(NC(=O)COc2ccc(I)cc2)c1 | 0.0268 µM | – | –
25 | Cc1cccc(OCC(=O)Nc2ccccc2F)c1 | > 40 µM (inactive) | – | > 40 µM (inactive)
26 | O=C(CCl)N=c1sccn1Cc1cccc2ccccc12 | – | 7.24 µM | 0.202 µM
27 | O=C(OCn1ncc(Cl)c(Cl)c1=O)c1ccccc1Cl | – | 4.03 µM | 4.45 µM
28 | CC(C)c1cc(C=C(C#N)C(=O)NCCCc2ccccc2)cc(C(C)C)c1O | 3.97 µM | 0.54 µM | 1.15 µM
29 | Nc1nc(CCl)nc(Nc2ccc3ccccc3c2)n1 | – | 7.46 µM | 0.958 µM
30 | CCOc1cc2ncnc(Nc3cccc(Br)c3)c2cc1OCC | 7.12 µM | 2.36 µM | 2.59 µM
31 | Cc1cccc(OCC(=O)Nc2ccc(C)c(C)c2)c1 | > 40 µM (inactive) | – | –
32 | Cc1[nH]c(=O)c(C(=O)C=Cc2ccc(Br)cc2)c2c1CCCC2 | 3.64 µM | 0.98 µM | 1.03 µM
33 | COc1cccc(N(C(=O)CCl)C(C(=O)NCCc2ccccc2)c2cccs2)c1 (stereo unspecified) | – | 2.76 µM | 1.04 µM
34 | COc1ccc(Nc2nc(N)nc(CCl)n2)cc1 | – | > 40 µM (inactive) | 3.96 µM
35 | COC(=O)/C=C/c1ccc(OC(=O)OC)c(OC(=O)OC)c1 | – | 12.6 µM | 27.7 µM
36 | Cc1cc(C)c(C(=O)/C=C/c2ccccc2F)c(=O)[nH]1 | 0.71 µM | 24 µM | 1.17 µM
37 | Cc1ccc(O)c(NC(=O)COc2ccc(Br)cc2)c1 | 0.0327 µM | – | –
38 | CCN1C/C(=C/c2ccc(OC)c(O)c2)C(=O)/C(=C/c2ccc(OC)c(O)c2)C1 | – | 2.36 µM | 2.75 µM
39 | COc1ccccc1N(C(=O)CCl)c1cn(C(C)=O)c2ccccc12 | – | 2.17 µM | 9.3 µM
40 | Cc1[nH]c(=O)c(C(=O)C=Cc2ccc(Cl)cc2Cl)c2c1CCCC2 | 1.43 µM | 0.53 µM | 2.57 µM
41 | N#C/C(=C\c1ccc(O)c(O)c1)C(=O)NCCCc1ccccc1 | – | 6.03 µM | 16.1 µM
42 | COc1ccc(-c2cc(-c3cc(C)ccc3O)[nH]n2)cc1 | – | 7.06 µM | 1.82 µM
43 | N#Cc1ccccc1NC(=O)COc1ccc2c(c1)OCO2 | > 40 µM (inactive) | – | > 40 µM (inactive)
44 | Cc1nc([N+](=O)[O-])c(Br)n1Cc1ccc(Cl)c(Cl)c1 | – | 2.62 µM | 4.58 µM

Row | SMILES | IC50 (JAK2V617F) | IC50 (Ba/F3, irf1 reporter) | IC50 (HEL, irf1 reporter)
45 | COc1cc2ncnc(Sc3ccc(C)cc3)c2cc1OC | > 40 µM (inactive) | – | 4.55 µM
46 | Cc1cccc(NC(=O)c2ccc([N+](=O)[O-])o2)c1 | – | 6.3 µM | 10.5 µM
47 | CC(C)C1C(C#N)=C(N)Oc2n[nH]c(-c3ccc4ccccc4c3)c21 (stereo unspecified) | – | 4.7 µM | 16.1 µM
48 | CCCCn1c(=N)n(CC(=O)c2ccc(Br)s2)c2ccccc21 | – | 3.61 µM | 9.86 µM
49 | CCc1cccc(Nc2ncnc3cc(OCCOC)c(OCCOC)cc23)c1 | > 40 µM (inactive) | – | > 40 µM (inactive)
50 | Cc1ccc(O)c(NC(=O)COc2cccc3ccccc23)c1 | 2.34 µM | – | –
51 | Cc1[nH]c(=O)c(C(=O)C=Cc2cccc(Br)c2)c2c1CCCC2 | 0.55 µM | 0.59 µM | 1.13 µM
52 | COc1ccc(OCC(=O)Nc2cc(C)ccc2O)cc1 | 3.4 µM | – | –
53 | COc1cc(/C=C(\C#N)C(N)=O)cc(CSc2nc3ccccc3s2)c1O | 6.78 µM | 3.35 µM | 4.15 µM
54 | Cc1cccc(OCC(=O)Nc2cccc(O)c2)c1 | > 40 µM (inactive) | – | > 40 µM (inactive)
55 | COC1(OC)C(/C=C/c2ccc(Cl)cc2)C(C#N)(C#N)C1(OC)OC (stereo unspecified) | – | 1.33 µM | 6.57 µM
56 | COc1ccc([N+](=O)[O-])c(S(=O)(=O)c2ccc(Cl)cc2)n1 | – | 0.395 µM | 10.4 µM
57 | COc1cc(/C=C2\COC/C(=C\c3ccc(O)c(OC)c3)C2=O)ccc1O | – | 1.99 µM | 7.86 µM
58 | CCCC(=O)N(C1CC(C)C(C#N)(C#N)C1(C#N)C#N)N(C)C (stereo unspecified) | – | 0.452 µM | 5.75 µM
59 | O=C1C=CC(=O)N1CCNc1ncc(C(F)(F)F)cc1Cl | – | 0.699 µM | 9.81 µM
60 | Cc1ccc(C=CC(=O)c2c3c(c(C)[nH]c2=O)CCCC3)cc1 | 3.38 µM | 6.04 µM | 23.9 µM
61 | N#C/C(=C\c1ccc(O)c(O)c1)C(=O)NCCc1ccccc1 | 0.79 µM | 0.2 µM | 5.15 µM
62 | [O-][N+]1=c2ccc(Nc3ccccc3)cc2=NC12CCCCC2 | – | 5.15 µM | 7.02 µM
63 | CCCc1nc2ccccc2c(=O)n1/N=C/c1ccc(O)c(O)c1 | – | 2.13 µM | 13.1 µM
64 | Cc1nn2c(NCc3ccccn3)c3c(nc2c1-c1ccccc1)CCC3 | – | 10.7 µM | 9.49 µM
65 | Cc1ccc(C)c(Sc2ccc(NC(=O)CCl)cc2)c1 | – | 2.19 µM | 18 µM
